Assays:
[1] = target: Recombinant Human Siglec-3/CD33 protein (His-CD33) (Homo sapiens (Human), UniProt P20138); test: Differential scanning fluorimetry (DSF) thermal shift assay; type: binding; settings: thermal melt shift of 0.5 μM CD33 protein with 50 μM compound
Experimental: In the DSF assay, as the temperature increases, the protein gets gradually unfolded, exposing hydrophobic regions in which a fluorescent dye binds causing the fluorescence signal to increase. The midpoint of the unfolding transitions is called the thermal melt (Tm) or denaturation temperature and the Tm was defined as the peak apex in the derivative curve. Here, the Tm temperature of CD33 in the presence and absence of A-001 at a concentration of 50 μM was examined.
Recombinant Human Siglec-3/CD33 protein was purchased from Acros (catalog no. CD3-H5226) and reagents used in this study are shown in the Table 1 below.
Lyophilized CD33 protein was received in 1 mg aliquots from Acros. The protein was diluted with 2.5 mL of sterile water to a concentration of 400 μg/mL (14.5 μM), aliquoted into 138 μL aliquots and stored as at −20° C. On the day of analysis, the protein was thawed and […] solution was diluted to […] using buffer containing 133 mM NaCl, 133 mM phosphate buffered solution and 13.9× Sypro Orange dye in water in a quantity to cover the amount of samples tested on the day of the analysis.
200 μM stock solutions of A-001 containing 0.2% DMSO in water was supplied by compound management in a 384-well plate format.
Sample matrix were prepared by adding 7.5 μL of the protein buffer stock solution followed by addition of 2.5 μL of the 200 μM compound solutions in 384-well PCR plates to give a final volume of 10 μL per well consisting of 0.5 μM CD33 protein, 100 mM phosphate buffered solution pH 7.4, 100 mM NaCl, 10× SYPRO orange dye and 50 μM compound concentration (final DMSO concentration ˜0.2%). Using the Applied Biosystems® Protein Thermal Shift software (algorithm version 1.3.), the denaturation temperature or thermal melt (Tm) of the unbound and ligand bound CD33 protein was automatically assigned and the difference in thermal melt (ΔTm D) was calculated using the derivative curve by the Protein Thermal Shift software.
Recombinant human CD33 protein (0.5 μM) was incubated under buffered conditions in the presence of SYPRO orange dye, a temperature gradient was applied and a thermogram was produced by monitoring the fluorescence. The Tm was defined as the peak apex in the derivative curve in the study. […] Addition of […] of A-001 (Blue lines) to the CD33 protein induced significant Tm increases (ΔTm D) of 12.2±0.7° C.

[2] = target: Recombinant human CD33 protein (Homo sapiens (Human), UniProt P20138); test: CD33 competitive binding assay for HTS drug screen (fluorescent multivalent sialic acid probe)
Sequence of Recombinant human CD33 protein (P20138 18-259): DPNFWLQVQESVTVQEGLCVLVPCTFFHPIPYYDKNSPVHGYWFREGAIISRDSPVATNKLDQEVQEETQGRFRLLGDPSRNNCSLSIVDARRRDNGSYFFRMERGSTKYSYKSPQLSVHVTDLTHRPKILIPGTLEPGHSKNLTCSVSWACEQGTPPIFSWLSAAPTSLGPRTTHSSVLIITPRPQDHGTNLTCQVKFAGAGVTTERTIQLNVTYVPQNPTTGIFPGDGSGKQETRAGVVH
How it was run: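 Inhibition was read as reduced retention of a fluorescent multivalent sialic acid complex (final 5 μM neutravidin, 15 μM A-375, 5 μM biotin-4-FITC) on plate-immobilized human CD33. Compound was added first, the probe followed for 30 min at room temperature in PBS with 0.2% Tween-20 and 0.5% BSA, and FITC was measured after a wash.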

Sequence of Recombinant Human Siglec-3/CD33 protein (His-CD33) (P20138 18-259): as above

SMILES	DSF (dTmD) [1]	EC50 [2] [µM]
CC(=O)N[C@H]1[C@H]([C@H](O)[C@H](O)CNC(=O)c2cc(C)c(O)c(C)c2)O[C@@](CCN2CCOC[C@@]23CCN(C(=O)N[C@@H](C)c2ccccc2)C3)(C(=O)O)C[C@@H]1O [A-043]	13.2	0.013
CC(=O)N[C@H]1[C@H]([C@H](O)[C@H](O)CNC(=O)c2cc(C)c(O)c(C)c2)O[C@@](CCN2CCOC[C@@]23CCN(C(=O)NC2CCC(F)(F)CC2)C3)(C(=O)O)C[C@@H]1O [A-051]	10.8	0.064
CC(=O)N[C@H]1[C@H]([C@H](O)[C@H](O)CNC(=O)c2cc(C)c(O)c(C)c2)O[C@@](CCN2CCOC[C@@]23CCN(C(=S)NC2CC2)C3)(C(=O)O)C[C@@H]1O [A-058]	5.0	1.38
CC(=O)N[C@H]1[C@H]([C@H](O)[C@H](O)CNC(=O)c2cc(C)c(O)c(C)c2)O[C@@](CCN2CCOC[C@@]23CCN(C(=O)N(C)C(C)C)C3)(C(=O)O)C[C@@H]1O [A-061]	7.5	0.235
CC(=O)N[C@H]1[C@H]([C@H](O)[C@H](O)CNC(=O)c2cc(C)c(O)c(C)c2)O[C@@](CCN2CCOC[C@@]23CCN(C(=O)N2CCCC2)C3)(C(=O)O)C[C@@H]1O [A-062]	7.2	0.833
CC(=O)N[C@H]1[C@H]([C@H](O)[C@H](O)CNC(=O)c2cc(C)c(O)c(C)c2)O[C@@](CCN2CCOC[C@@]23CCN(C(=O)N(C)Cc2ccccc2)C3)(C(=O)O)C[C@@H]1O [A-063]	6.3	0.323
CCN(CC)C(=O)N1CC[C@@]2(COCCN2CC[C@]2(C(=O)O)C[C@H](O)[C@@H](NC(C)=O)[C@H]([C@H](O)[C@H](O)CNC(=O)c3cc(C)c(O)c(C)c3)O2)C1 [A-066]	8.4	0.156
CC(=O)N[C@H]1[C@H]([C@H](O)[C@H](O)CNC(=O)c2cc(C)c(O)c(C)c2)O[C@@](CCN2CCOC[C@@]23CCN(C(=O)C2CCCCC2(F)F)C3)(C(=O)O)C[C@@H]1O (stereo partly shown) [A-070]	12.0	0.031
CC(=O)N[C@H]1[C@H]([C@H](O)[C@H](O)CNC(=O)c2cc(C)c(O)c(C)c2)O[C@@](CCN2CCOC[C@@]23CCN(C(=O)C2(C)CCCCC2)C3)(C(=O)O)C[C@@H]1O [A-071]	11.0	0.041
CC(=O)N[C@H]1[C@H]([C@H](O)[C@H](O)CNC(=O)c2cc(C)c(O)c(C)c2)O[C@@](CCN2CCOC[C@@]23CCN(C(=O)C2CC2)C3)(C(=O)O)C[C@@H]1O [A-096]	7.6	0.454
CC(=O)N[C@H]1[C@H]([C@H](O)[C@H](O)CNC(=O)c2cc(C)c(O)c(C)c2)O[C@@](CCN2CCOC[C@@]23CCN(C(=O)C(C)(C)C)C3)(C(=O)O)C[C@@H]1O [A-097]	8.25	0.43
CC(=O)N[C@H]1[C@H]([C@H](O)[C@H](O)CNC(=O)c2cc(C)c(O)c(C)c2)O[C@@](CCN2CCOC[C@@]23CCN(C(=O)c2ccc(C)cc2)C3)(C(=O)O)C[C@@H]1O [A-099]	7.3	0.342
CC(=O)N[C@H]1[C@H]([C@H](O)[C@H](O)CNC(=O)c2cc(C)c(O)c(C)c2)O[C@@](CCN2CCOC[C@@]23CCN(C(=O)C2(C)COC2)C3)(C(=O)O)C[C@@H]1O [A-100]	5.6	2.34
CC(=O)N[C@H]1[C@H]([C@H](O)[C@H](O)CNC(=O)c2cc(C)c(O)c(C)c2)O[C@@](CCN2CCOC[C@@]23CCN(C(=O)c2ccccc2)C3)(C(=O)O)C[C@@H]1O [A-101]	7.4	0.921

More lines, now with the values ahead:

DSF (dTmD) [1]	EC50 [2] [µM]	SMILES
11.5	0.019	CC(=O)N[C@H]1[C@H]([C@H](O)[C@H](O)CNC(=O)c2cc(C)c(O)c(C)c2)O[C@@](CCN2CCOC[C@@]23CCN(C(=O)NC(C)C(F)(F)F)C3)(C(=O)O)C[C@@H]1O (stereo partly shown) [A-044]
12.6	0.019	CC(=O)N[C@H]1[C@H]([C@H](O)[C@H](O)CNC(=O)c2cc(C)c(O)c(C)c2)O[C@@](CCN2CCOC[C@@]23CCN(C(=O)NC2CCCCC2)C3)(C(=O)O)C[C@@H]1O [A-045]
12.9	0.022	CC(=O)N[C@H]1[C@H]([C@H](O)[C@H](O)CNC(=O)c2cc(C)c(O)c(C)c2)O[C@@](CCN2CCOC[C@@]23CCN(C(=O)N[C@H](C)c2ccccc2)C3)(C(=O)O)C[C@@H]1O [A-047]
12.5	0.024	CC(=O)N[C@H]1[C@H]([C@H](O)[C@H](O)CNC(=O)c2cc(C)c(O)c(C)c2)O[C@@](CCN2CCOC[C@@]23CCN(C(=O)NC(C)C)C3)(C(=O)O)C[C@@H]1O [A-048]
13.5	0.041	CC(=O)N[C@H]1[C@H]([C@H](O)[C@H](O)CNC(=O)c2cc(C)c(O)c(C)c2)O[C@@](CCN2CCOC[C@@]23CCN(C(=O)NC24CC5CC(CC(C5)C2)C4)C3)(C(=O)O)C[C@@H]1O [A-049]
9.9	0.066	CC(=O)N[C@H]1[C@H]([C@H](O)[C@H](O)CNC(=O)c2cc(C)c(O)c(C)c2)O[C@@](CCN2CCOC[C@@]23CCN(C(=S)NC2CCCCC2)C3)(C(=O)O)C[C@@H]1O [A-052]
9.2	0.147	CC(=O)N[C@H]1[C@H]([C@H](O)[C@H](O)CNC(=O)c2cc(C)c(O)c(C)c2)O[C@@](CCN2CCOC[C@@]23CCN(C(=O)Nc2ccc(C)cc2)C3)(C(=O)O)C[C@@H]1O [A-053]
9.7	0.265	CC(=O)N[C@H]1[C@H]([C@H](O)[C@H](O)CNC(=O)c2cc(C)c(O)c(C)c2)O[C@@](CCN2CCOC[C@@]23CCN(C(=O)NC2(c4ccc(F)cc4)CCCC2)C3)(C(=O)O)C[C@@H]1O [A-057]
9.3	0.06	CC(=O)N[C@H]1[C@H]([C@H](O)[C@H](O)CNC(=O)c2cc(C)c(O)c(C)c2)O[C@@](CCN2CCOC[C@@]23CCN(C(=O)N(C)c2ccccc2)C3)(C(=O)O)C[C@@H]1O [A-059]
11.2	0.065	CC(=O)N[C@H]1[C@H]([C@H](O)[C@H](O)CNC(=O)c2cc(C)c(O)c(C)c2)O[C@@](CCN2CCOC[C@@]23CCN(C(=O)C2CCCC2)C3)(C(=O)O)C[C@@H]1O [A-060]
3.5	3.5	CC(=O)N[C@H]1[C@H]([C@H](O)[C@H](O)CNC(=O)c2cc(C)c(O)c(C)c2)O[C@@](CCN2CCOC[C@@]23CCN(C(=O)N(C)C)C3)(C(=O)O)C[C@@H]1O [A-064]
6.1	0.739	CC(=O)N[C@H]1[C@H]([C@H](O)[C@H](O)CNC(=O)c2cc(C)c(O)c(C)c2)O[C@@](CCN2CCOC[C@@]23CCN(C(=O)N2CCC(F)(F)CC2)C3)(C(=O)O)C[C@@H]1O [A-065]
8.3	0.123	CC(=O)N[C@H]1[C@H]([C@H](O)[C@H](O)CNC(=O)c2cc(C)c(O)c(C)c2)O[C@@](CCN2CCOC[C@@]23CCN(C(=O)C2CC4(C2)CC(F)(F)C4)C3)(C(=O)O)C[C@@H]1O [A-069]
9.4	0.115	CC(=O)N[C@H]1[C@H]([C@H](O)[C@H](O)CNC(=O)c2cc(C)c(O)c(C)c2)O[C@@](CCN2CCOC[C@@]23CCN(C(=O)C=C(C)C)C3)(C(=O)O)C[C@@H]1O [A-078]
9.1	0.152	CC(=O)N[C@H]1[C@H]([C@H](O)[C@H](O)CNC(=O)c2cc(C)c(O)c(C)c2)O[C@@](CCN2CCOC[C@@]23CCN(C(=O)NCc2ccccc2)C3)(C(=O)O)C[C@@H]1O [A-079]
10.2	0.068	CC(=O)N[C@H]1[C@H]([C@H](O)[C@H](O)CNC(=O)c2cc(C)c(O)c(C)c2)O[C@@](CCN2CCOC[C@@]23CCN(C(=O)C2CC(C)(C)C2)C3)(C(=O)O)C[C@@H]1O [A-080]
6.9	0.685	CC(=O)N[C@H]1[C@H]([C@H](O)[C@H](O)CNC(=O)c2cc(C)c(O)c(C)c2)O[C@@](CCN2CCOC[C@@]23CCN(C(=O)C2(c4ccccc4)CC2)C3)(C(=O)O)C[C@@H]1O [A-098]
7.5	0.397	CC(=O)N[C@H]1[C@H]([C@H](O)[C@H](O)CNC(=O)c2cc(C)c(O)c(C)c2)O[C@@](CCN2CCOC[C@@]23CCN(C(=O)C2(C(F)(F)F)CCCCC2)C3)(C(=O)O)C[C@@H]1O [A-102]
